Laboratory results taken from patent publication US20230174523A1, “BENZENESULFONAMIDE DERIVATIVES AS TRAP1 MODULATORS AND USES THEREOF” (Amathus Therapeutics, Inc., priority 2020, published 2023).

Molecular target: T1, TRAP1 enzyme (Homo sapiens, UniProt Q12931)
T1 sequence (Q12931 60-704): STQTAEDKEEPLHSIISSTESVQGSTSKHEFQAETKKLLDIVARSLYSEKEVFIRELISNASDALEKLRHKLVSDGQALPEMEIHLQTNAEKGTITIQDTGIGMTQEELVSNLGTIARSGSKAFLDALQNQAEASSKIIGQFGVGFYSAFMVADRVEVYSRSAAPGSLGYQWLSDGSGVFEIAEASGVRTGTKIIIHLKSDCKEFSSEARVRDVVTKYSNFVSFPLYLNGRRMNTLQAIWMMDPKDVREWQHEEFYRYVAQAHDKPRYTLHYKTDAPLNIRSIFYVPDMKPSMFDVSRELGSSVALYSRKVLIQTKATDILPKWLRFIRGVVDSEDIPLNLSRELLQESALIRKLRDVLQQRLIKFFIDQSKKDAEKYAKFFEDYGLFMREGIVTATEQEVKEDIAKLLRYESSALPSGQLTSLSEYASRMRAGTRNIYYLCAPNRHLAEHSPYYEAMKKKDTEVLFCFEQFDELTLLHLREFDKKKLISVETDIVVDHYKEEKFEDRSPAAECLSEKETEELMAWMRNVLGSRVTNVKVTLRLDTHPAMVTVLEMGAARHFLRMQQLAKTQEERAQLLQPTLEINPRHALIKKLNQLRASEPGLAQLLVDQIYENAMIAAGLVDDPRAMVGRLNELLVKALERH
Test: Malachite green phosphate assay of TRAP1 ATPase activity
Format: biochemical
Conditions: for EC50: TRAP1 ATPase activation, 150 nM Trap1, 20 μM ATP, geometric mean, read-out: Malachite Green Fluor DRC: GeoMean EC50; for Emax: read-out: Malachite Green Fluor DRC: Mean Emax
Protocol: The Potency of test compounds to modulate the ATPase activity of TRAP1 enzyme was evaluated using malachite green phosphatase assay. The assay is based on quantification of the green complex formed between Malachite Green, molybdate and inorganic phosphate generated in the phosphatase reaction. Assays were performed using a Malachite Green assay kit. All the assays were carried out in a 96-well transparent plate. The buffer used was 50 mM HEPES (pH 7.5), 20 mM KCl, 4 mM MgCl2 and 0.05% BSA. 150 nM Trap1 enzyme was incubated with various concentrations of the test compound (0.78 μM-100 μM) at 37° C. for 30 mins. 20 μM ATP was added to each well (except blank wells) to start the reaction and the plate was then incubated at 37° C. for 180 mins. 10 μl of the reaction volume of each sample was then transferred to a white 384-well proxiplate in quadruplets. 2.5 μl of Malachite Green reagent was added to all the wells and the plate was equilibrated for 15 mins. The reaction was stopped by adding 12% H2SO4 and the plate was read for fluorescence at 620 nm (λex=573 nm). The amount of phosphate released was estimated from a phosphate standard curve generated at the same experimental conditions. Emax (Maximal percent activation) and EC50 (concentration of test compound for half maximal activation) were estimated by fitting the dose response data to a sigmoidal curve fitting equation using Graphpad Prism software V.7.0.

CCc1ccc(NC(=O)c2ncc(-c3ccccc3)o2)cc1S(=O)(=O)Nc1ccc(Cl)nc1 [Compound 548]
EC50: < 10 µM | Emax: 123 to 159%

COc1ccc(NC(=O)c2cnc(C(F)(F)F)[nH]2)cc1S(=O)(=O)N(CCCCCC[P+](c1ccccc1)(c1ccccc1)c1ccccc1)c1ccc(Br)cc1 [Compound 260]
EC50: < 10 µM | Emax: 160 to 199%

COc1ccc(NC(=O)c2cc3sccc3s2)cc1S(=O)(=O)Nc1c(C)cccc1C [Compound 1051]
EC50: < 10 µM | Emax: 160 to 199%

C=C(C)c1nc(C(=O)Nc2ccc(OC)c(S(=O)(=O)Nc3ccc(Cl)cc3)c2)oc1-c1ccccc1 [Compound 545]
EC50: < 10 µM | Emax: 123 to 159%

COc1ccc(NC(=O)c2cn(C)c(C(F)(F)F)n2)cc1S(=O)(=O)Nc1ccc(Br)cc1 [Compound 364]
EC50: 20 to 100 µM | Emax: 160 to 199%

Cc1ccc2c(c1)CCN2S(=O)(=O)c1cccc(NC(=O)c2ocnc2C)c1 [Compound 407]
EC50: 20 to 100 µM | Emax: 200 to 300%

CCOC(=O)Cc1ccc(NC(=O)c2ncco2)cc1S(=O)(=O)Nc1ccc(Br)cc1 [Compound 332]
EC50: 20 to 100 µM | Emax: 200 to 300%

COc1ccc(NC(=O)c2ccc(-c3ccccc3)o2)cc1S(=O)(=O)Nc1ccc(Cl)cc1 [Compound 499]
EC50: 20 to 100 µM | Emax: 160 to 199%

C=C(C)c1ncoc1C(=O)Nc1ccc(OC)c(S(=O)(=O)Nc2ccc(Cl)cc2)c1 [Compound 593]
EC50: 20 to 100 µM | Emax: 200 to 300%

O=C(Nc1ccc(F)c(S(=O)(=O)Nc2c(F)cc(Cl)cc2F)c1)c1ncc(-c2ccccc2)o1 [Compound 503]
EC50: < 10 µM | Emax: 123 to 159%

COc1ccc(NC(=O)c2ccc3cnccc3n2)cc1S(=O)(=O)Nc1c(C)cccc1C [Compound 1047]
EC50: 10 to 20 µM | Emax: 160 to 199%

COc1ccc(NC(=O)c2cnc(-c3ccccc3)o2)cc1S(=O)(=O)Nc1ccc(Br)cc1 [Compound 185]
EC50: 10 to 20 µM | Emax: 160 to 199%

CCOC(=O)/C=C/c1ccc(NC(=O)c2ncc(-c3ccccc3)o2)cc1S(=O)(=O)Nc1ccc(Cl)cc1 [Compound 634]
EC50: < 10 µM | Emax: 123 to 159%

COc1ccc(NC(=O)c2cnc(-c3ccccc3)[nH]2)cc1S(=O)(=O)N(CCOCCOCCOCCN)c1ccc(Br)cc1 [Compound 526, N-(3-(N-(2-(2-(2-(2-aminoethoxy)ethoxy)ethoxy)ethyl)-N-(4-bromophenyl)sulfamoyl)-4-methoxyphenyl)-2-phenyl-1H-imidazole-5-carboxamide]
EC50: 20 to 100 µM | Emax: > 300%

COc1ccc(NC(=O)c2cnco2)cc1S(=O)(=O)Nc1ccc(Br)cc1 [Compound 91, N-(3-(N-(4-bromophenyl)sulfamoyl)-4-methoxyphenyl) oxazole-5-carboxamide]
EC50: 20 to 100 µM | Emax: 160 to 199%

COc1ccc(NC(=O)c2cnc(C(F)(F)F)[nH]2)cc1S(=O)(=O)Nc1cccc(C(C)(C)C)c1 [Compound 368]
EC50: 20 to 100 µM | Emax: 200 to 300%

O=C(Nc1cccc(S(=O)(=O)N2CCOc3ccccc32)c1)c1ncco1 [Compound 372]
EC50: 20 to 100 µM | Emax: 160 to 199%

Cc1ncoc1C(=O)Nc1cccc(S(=O)(=O)N2CCC(C)(C)c3cc(Cl)ccc32)c1 [Compound 517]
EC50: 10 to 20 µM | Emax: 160 to 199%

Cc1ccc(NS(=O)(=O)c2cc(NC(=O)c3cnc(C(F)(F)F)[nH]3)ccc2F)cc1 [Compound 278]
EC50: 10 to 20 µM | Emax: 160 to 199%

COc1ccc(NC(=O)c2cnc(C(F)(F)F)[nH]2)cc1S(=O)(=O)N(CCCCCN1CCCC1)c1ccc(Br)cc1 [Compound 439]
EC50: 20 to 100 µM | Emax: 160 to 199%

COc1ccc(NC(=O)c2cnc(-c3ccccc3)o2)cc1S(=O)(=O)Nc1c(Cl)cccc1Cl [Compound 662]
EC50: 10 to 20 µM | Emax: 160 to 199%

COc1ccc(NC(=O)c2cnccc2C(C)C)cc1S(=O)(=O)Nc1ccc(Cl)cc1 [Compound 496]
EC50: 20 to 100 µM | Emax: 160 to 199%

COc1ccc(-c2ncc(C(=O)Nc3ccc(OC)c(S(=O)(=O)Nc4ccc(Br)cc4)c3)[nH]2)cc1 [Compound 417]
EC50: < 10 µM | Emax: 123 to 159%

COc1ccc(NC(=O)c2cnccc2C)cc1S(=O)(=O)Nc1ccccc1C [Compound 64]
EC50: 20 to 100 µM | Emax: 160 to 199%

COc1ccc(NC(=O)c2nnc(-c3ccccc3)o2)cc1S(=O)(=O)Nc1c(Cl)cccc1Cl [Compound 469]
EC50: < 10 µM | Emax: 160 to 199%

COc1ccc(NC(=O)c2cnc(C(F)(F)F)[nH]2)cc1S(=O)(=O)N(CCCCCCO)c1ccc(Br)cc1 [Compound 257]
EC50: 20 to 100 µM | Emax: > 300%

COc1ccc(NC(=O)c2nnc(-c3ccccc3)s2)cc1S(=O)(=O)Nc1ccc(Cl)cc1 [Compound 500]
EC50: 10 to 20 µM | Emax: 200 to 300%

O=C(Nc1cccc(S(=O)(=O)N2CCOc3cc(F)ccc32)c1)c1ncco1 [Compound 377]
EC50: 20 to 100 µM | Emax: 160 to 199%

CN(c1ccc(Br)cc1)S(=O)(=O)c1cc(NC(=O)c2cnc[nH]2)ccc1OCCCCCCO [Compound 342]
EC50: 20 to 100 µM | Emax: 200 to 300%

COc1ccc(NC(=O)c2cnc(-c3ccccc3)[nH]2)cc1S(=O)(=O)N(CCCCCC(=O)O)c1ccc(Br)cc1 [Compound 243, 6-((N-(4-bromophenyl)-2-methoxy-5-(2-phenyl-1H-imidazole-5-carboxamido)phenyl)sulfonamido) hexanoic acid]
EC50: 10 to 20 µM | Emax: > 300%

COc1ccc(NC(=O)c2ncco2)cc1S(=O)(=O)N(CCCCCC[P+](c1ccccc1)(c1ccccc1)c1ccccc1)c1ccc(Br)cc1 [Compound 259]
EC50: < 10 µM | Emax: > 300%

COc1ccc(NC(=O)c2cnc(-c3ccc(Cl)cc3)[nH]2)cc1S(=O)(=O)Nc1ccc(Br)cc1 [Compound 415]
EC50: < 10 µM | Emax: 123 to 159%

COc1ccc(NC(=S)c2ncc(-c3ccccc3)o2)cc1S(=O)(=O)Nc1ccc(Cl)cc1 [Compound 583, N-(3-(N-(4-chlorophenyl)sulfamoyl)-4-methoxyphenyl)-5-phenyloxazole-2-carbothioamide]
EC50: 10 to 20 µM | Emax: 160 to 199%

COc1ccc(NC(=O)c2cnc(-c3ccccc3)[nH]2)cc1S(=O)(=O)N(CCCCCCO)c1ccc(Br)cc1 [Compound 253]
EC50: 10 to 20 µM | Emax: 160 to 199%

Cc1ccc(NS(=O)(=O)c2cccc(NC(=O)c3cnc(C(F)(F)F)[nH]3)c2)cc1 [Compound 271]
EC50: 10 to 20 µM | Emax: 160 to 199%

COc1ccc(NC(=O)c2cnc(-c3ccccc3)o2)cc1S(=O)(=O)Nc1ccc(C(F)(F)F)cc1 [Compound 650]
EC50: 20 to 100 µM | Emax: 200 to 300%

O=C(Nc1ccc(F)c(S(=O)(=O)Nc2ccc(F)cc2)c1)c1cnc(C(F)(F)F)[nH]1 [Compound 220]
EC50: 10 to 20 µM | Emax: 160 to 199%

COc1ccc(NC(=O)c2ncc(-c3ccccc3)o2)cc1S(=O)(=O)Nc1c(C)cccc1C [Compound 423]
EC50: < 10 µM | Emax: 160 to 199%

COc1ccc(NC(=O)c2cnc(-c3ccccc3)[nH]2)cc1S(=O)(=O)Nc1ccc(Cl)cc1 [Compound 404]
EC50: < 10 µM | Emax: 160 to 199%

Cc1ccc2c(c1)OCCN2S(=O)(=O)c1cccc(NC(=O)c2ncco2)c1 [Compound 324]
EC50: 20 to 100 µM | Emax: 200 to 300%

CN(c1ccc(Br)cc1)S(=O)(=O)c1cc(NC(=O)c2cnc[nH]2)ccc1OCCCCCC[P+](c1ccccc1)(c1ccccc1)c1ccccc1 [Compound 363]
EC50: < 10 µM | Emax: > 300%

COc1ccc(NC(=O)c2ncc(-c3ccccc3)o2)cc1S(=O)(=O)Nc1ccc(Cl)cc1 [Compound 369]
EC50: < 10 µM | Emax: 160 to 199%

CCc1ccc(NC(=O)c2ncn(C)n2)cc1S(=O)(=O)Nc1ccc(Cl)cc1 [Compound 575]
EC50: 20 to 100 µM | Emax: 160 to 199%

COc1ccc(NC(=O)c2nc(C(F)(F)F)cs2)cc1S(=O)(=O)Nc1ccc(Br)cc1 [Compound 370, N-(3-(N-(4-bromophenyl)sulfamoyl)-4-methoxyphenyl)-4-(trifluoromethyl) thiazole-2-carboxamide]
EC50: 20 to 100 µM | Emax: 200 to 300%

COc1ccc(NC(=O)c2ccccc2N2CCOCC2)cc1S(=O)(=O)Nc1c(C)cccc1C [Compound 1048]
EC50: 10 to 20 µM | Emax: 160 to 199%

COc1ccc(NC(=O)c2ncco2)cc1S(=O)(=O)Nc1ccc(C)cc1 [Compound 307]
EC50: 20 to 100 µM | Emax: 160 to 199%
